ChEMBL document CHEMBL3232845 (Bioorg Med Chem Lett, 2014)

Tests used:
[1] = biological target: Aurora kinase A (Homo sapiens) (UniProt O14965); assay: Inhibition of human AURKA assessed as enzyme activity at 1 uM relative to control; parameters: scale not given: the % may be the effect or the level left
[2] = biological target: Serine/threonine-protein kinase PLK2 (Homo sapiens) (UniProt Q9NYY3); assay: Inhibition of human Plk2 assessed as enzyme activity at 1 uM relative to control; parameters: scale not given: the % may be the effect or the level left
[3] = biological target: Rhodopsin kinase GRK7 (Homo sapiens) (UniProt Q8WTQ7); assay: Inhibition of human GRK7 assessed as enzyme activity at 1 uM relative to control; parameters: scale not given: the % may be the effect or the level left
[4] = biological target: Insulin receptor (Homo sapiens) (UniProt P06213); assay: Inhibition of human activated IR assessed as enzyme activity at 1 uM relative to control; parameters: scale not given: the % may be the effect or the level left
[5] = biological target: Mitogen-activated protein kinase 3 (Homo sapiens) (UniProt P27361); assay: Inhibition of human ERK1 assessed as enzyme activity at 1 uM relative to control; parameters: scale not given: the % may be the effect or the level left
[6] = biological target: G protein-coupled receptor kinase 5 (Homo sapiens) (UniProt P34947); assay: Inhibition of human GRK5 assessed as enzyme activity at 1 uM relative to control; parameters: scale not given: the % may be the effect or the level left
[7] = biological target: Mitogen-activated protein kinase kinase kinase 9 (Homo sapiens) (UniProt P80192); assay: Inhibition of human MLK1 assessed as enzyme activity at 1 uM relative to control; parameters: scale not given: the % may be the effect or the level left
[8] = Antitumor activity against human LOX cells expressing B-Raf V600E mutant xenografted in nude mouse assessed as tumor growth inhibition at 30 mg/kg qd for 4 days measured on day 5; type: functional; conditions: read-out: TGI
[9] = biological target: Serine/threonine-protein kinase STK11 (Homo sapiens) (UniProt Q15831); assay: Inhibition of human LKB1 assessed as enzyme activity at 1 uM relative to control; parameters: scale not given: the % may be the effect or the level left
[10] = biological target: Cyclin-dependent kinase 2/cyclin E1 (Homo sapiens) (UniProt P24864+P24941); assay: Inhibition of human CDK2/cyclinE assessed as enzyme activity at 1 uM relative to control; type: protein-complex assay; parameters: scale not given: the % may be the effect or the level left
[11] = biological target: Serine/threonine-protein kinase PLK3 (Homo sapiens) (UniProt Q9H4B4); assay: Inhibition of human Plk3 assessed as enzyme activity at 1 uM relative to control; parameters: scale not given: the % may be the effect or the level left
[12] = biological target: Fibroblast growth factor receptor 2 (Homo sapiens) (UniProt P21802); assay: Inhibition of human FGFR2 assessed as enzyme activity at 1 uM relative to control; parameters: scale not given: the % may be the effect or the level left
[13] = biological target: Serine/threonine-protein kinase Sgk1 (Homo sapiens) (UniProt O00141); assay: Inhibition of human SGK1 assessed as enzyme activity at 1 uM relative to control; parameters: scale not given: the % may be the effect or the level left
[14] = biological target: Activated CDC42 kinase 1 (Homo sapiens) (UniProt Q07912); assay: Inhibition of human TNK2 assessed as enzyme activity at 1 uM relative to control; parameters: scale not given: the % may be the effect or the level left
[15] = Apparent permeability of the compound from apical to basolateral direction in pig LLC-PK1 cells; type: ADME, cell-based, Sus scrofa
[16] = biological target: Fibroblast growth factor receptor 3 (Homo sapiens) (UniProt P22607); assay: Inhibition of human FGFR3 assessed as enzyme activity at 1 uM relative to control; parameters: scale not given: the % may be the effect or the level left
[17] = biological target: Serine/threonine-protein kinase Nek6 (Homo sapiens) (UniProt Q9HC98); assay: Inhibition of human NEK6 assessed as enzyme activity at 1 uM relative to control; parameters: scale not given: the % may be the effect or the level left
[18] = biological target: Protein kinase C zeta type (Homo sapiens) (UniProt Q05513); assay: Inhibition of human PKCzeta assessed as enzyme activity at 1 uM relative to control; parameters: scale not given: the % may be the effect or the level left
[19] = biological target: Eukaryotic elongation factor 2 kinase (Homo sapiens) (UniProt O00418); assay: Inhibition of human eEF-2K assessed as enzyme activity at 1 uM relative to control; parameters: scale not given: the % may be the effect or the level left
[20] = biological target: Platelet-derived growth factor receptor alpha (Homo sapiens) (UniProt P16234); assay: Inhibition of human PDGFRalpha assessed as enzyme activity at 1 uM relative to control; parameters: scale not given: the % may be the effect or the level left
[21] = biological target: Tyrosine-protein kinase Tec (Homo sapiens) (UniProt P42680); assay: Inhibition of human activated TEC assessed as enzyme activity at 1 uM relative to control; parameters: scale not given: the % may be the effect or the level left
[22] = biological target: Tyrosine-protein kinase Fes/Fps (Homo sapiens) (UniProt P07332); assay: Inhibition of human Fes assessed as enzyme activity at 1 uM relative to control; parameters: scale not given: the % may be the effect or the level left
[23] = biological target: Myosin light chain kinase, smooth muscle (Homo sapiens) (UniProt Q15746); assay: Inhibition of human MYLK assessed as enzyme activity at 1 uM relative to control; parameters: scale not given: the % may be the effect or the level left
[24] = biological target: Protein kinase C gamma type (Homo sapiens) (UniProt P05129); assay: Inhibition of human PKCgamma assessed as enzyme activity at 1 uM relative to control; parameters: scale not given: the % may be the effect or the level left
[25] = biological target: Ephrin type-B receptor 1 (Homo sapiens) (UniProt P54762); assay: Inhibition of human EphB1 assessed as enzyme activity at 1 uM relative to control; parameters: scale not given: the % may be the effect or the level left
[26] = biological target: Maternal embryonic leucine zipper kinase (Homo sapiens) (UniProt Q14680); assay: Inhibition of human MELK assessed as enzyme activity at 1 uM relative to control; parameters: scale not given: the % may be the effect or the level left
[27] = biological target: Dual specificity mitogen-activated protein kinase kinase 7 (Homo sapiens) (UniProt O14733); assay: Inhibition of human MKK7 assessed as enzyme activity at 1 uM relative to control; parameters: scale not given: the % may be the effect or the level left
[28] = biological target: CDK6/cyclin D3 (Homo sapiens) (UniProt P30281+Q00534); assay: Inhibition of human CDK6/cyclinD3 assessed as enzyme activity at 1 uM relative to control; type: protein-complex assay; parameters: scale not given: the % may be the effect or the level left
[29] = biological target: Cyclin-dependent kinase 5/CDK5 activator 1 (Homo sapiens) (UniProt Q00535+Q15078); assay: Inhibition of human CDK5/p25 assessed as enzyme activity at 1 uM relative to control; type: protein-complex assay; parameters: scale not given: the % may be the effect or the level left
[30] = biological target: Epidermal growth factor receptor (Homo sapiens) (UniProt P00533); assay: Inhibition of human EGFR assessed as enzyme activity at 1 uM relative to control; parameters: scale not given: the % may be the effect or the level left
[31] = biological target: Protein kinase C delta type (Homo sapiens) (UniProt Q05655); assay: Inhibition of human PKCdelta assessed as enzyme activity at 1 uM relative to control; parameters: scale not given: the % may be the effect or the level left
[32] = biological target: Proto-oncogene tyrosine-protein kinase ROS (Homo sapiens) (UniProt P08922); assay: Inhibition of human Ros assessed as enzyme activity at 1 uM relative to control; parameters: scale not given: the % may be the effect or the level left
[33] = biological target: SRSF protein kinase 3 (Homo sapiens) (UniProt Q9UPE1); assay: Inhibition of human MSSK1 assessed as enzyme activity at 1 uM relative to control; parameters: scale not given: the % may be the effect or the level left
[34] = Volume of distribution in mouse; type: ADME, organism-based; conditions: in vivo
[35] = biological target: LIM domain kinase 1 (Homo sapiens) (UniProt P53667); assay: Inhibition of human LIMK1 assessed as enzyme activity at 1 uM relative to control; parameters: scale not given: the % may be the effect or the level left
[36] = biological target: Dual specificity tyrosine-phosphorylation-regulated kinase 2 (Homo sapiens) (UniProt Q92630); assay: Inhibition of human DYRK2 assessed as enzyme activity at 1 uM relative to control; parameters: scale not given: the % may be the effect or the level left
[37] = biological target: Serine/threonine-protein kinase PAK 6 (Homo sapiens) (UniProt Q9NQU5); assay: Inhibition of human PAK6 assessed as enzyme activity at 1 uM relative to control; parameters: scale not given: the % may be the effect or the level left
[38] = biological target: Ephrin type-B receptor 4 (Homo sapiens) (UniProt P54760); assay: Inhibition of human EphB4 assessed as enzyme activity at 1 uM relative to control; parameters: scale not given: the % may be the effect or the level left
[39] = biological target: Vascular endothelial growth factor receptor 2 (Homo sapiens) (UniProt P35968); assay: Inhibition of human KDR assessed as enzyme activity at 1 uM relative to control; parameters: scale not given: the % may be the effect or the level left

Chain of Insulin receptor (Homo sapiens) (P06213 28-758 limits assumed): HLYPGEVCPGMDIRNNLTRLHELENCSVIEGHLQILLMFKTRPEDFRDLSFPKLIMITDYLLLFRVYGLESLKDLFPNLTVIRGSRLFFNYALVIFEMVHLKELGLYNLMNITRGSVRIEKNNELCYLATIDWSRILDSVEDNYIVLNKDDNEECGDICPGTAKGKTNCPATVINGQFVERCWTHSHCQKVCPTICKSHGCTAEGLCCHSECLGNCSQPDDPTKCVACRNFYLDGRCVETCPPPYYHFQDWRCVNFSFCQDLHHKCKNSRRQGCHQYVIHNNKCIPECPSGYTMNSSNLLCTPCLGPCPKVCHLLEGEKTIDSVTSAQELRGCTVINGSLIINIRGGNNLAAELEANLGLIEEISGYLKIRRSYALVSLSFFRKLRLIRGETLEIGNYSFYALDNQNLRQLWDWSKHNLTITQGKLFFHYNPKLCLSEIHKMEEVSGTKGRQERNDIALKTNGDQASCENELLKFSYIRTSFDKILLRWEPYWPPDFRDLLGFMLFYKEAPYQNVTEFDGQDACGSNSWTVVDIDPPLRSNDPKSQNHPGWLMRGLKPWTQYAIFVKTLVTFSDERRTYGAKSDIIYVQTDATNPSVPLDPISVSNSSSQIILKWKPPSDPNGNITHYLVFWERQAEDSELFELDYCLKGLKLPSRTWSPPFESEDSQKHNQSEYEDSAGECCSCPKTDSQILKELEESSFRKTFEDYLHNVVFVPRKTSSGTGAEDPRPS
Chain of Insulin receptor (Homo sapiens) (P06213 763-1382 limits assumed): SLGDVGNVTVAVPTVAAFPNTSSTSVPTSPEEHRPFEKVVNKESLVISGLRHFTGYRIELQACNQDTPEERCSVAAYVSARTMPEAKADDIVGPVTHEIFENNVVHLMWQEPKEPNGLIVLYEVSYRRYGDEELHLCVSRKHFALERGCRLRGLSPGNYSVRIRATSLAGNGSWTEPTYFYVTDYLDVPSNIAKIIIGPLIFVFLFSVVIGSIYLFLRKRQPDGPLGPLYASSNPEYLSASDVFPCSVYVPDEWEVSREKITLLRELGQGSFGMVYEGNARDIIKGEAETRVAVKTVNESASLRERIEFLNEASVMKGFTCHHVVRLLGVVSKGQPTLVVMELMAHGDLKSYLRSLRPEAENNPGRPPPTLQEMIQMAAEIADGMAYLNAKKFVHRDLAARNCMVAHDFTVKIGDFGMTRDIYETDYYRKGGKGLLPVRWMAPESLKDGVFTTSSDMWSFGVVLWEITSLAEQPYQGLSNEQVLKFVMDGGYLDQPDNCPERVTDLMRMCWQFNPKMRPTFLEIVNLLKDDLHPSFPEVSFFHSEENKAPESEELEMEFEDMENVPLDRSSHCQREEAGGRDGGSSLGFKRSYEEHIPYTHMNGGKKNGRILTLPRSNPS
Chain of Proto-oncogene tyrosine-protein kinase ROS (Homo sapiens) (P08922 whole entry): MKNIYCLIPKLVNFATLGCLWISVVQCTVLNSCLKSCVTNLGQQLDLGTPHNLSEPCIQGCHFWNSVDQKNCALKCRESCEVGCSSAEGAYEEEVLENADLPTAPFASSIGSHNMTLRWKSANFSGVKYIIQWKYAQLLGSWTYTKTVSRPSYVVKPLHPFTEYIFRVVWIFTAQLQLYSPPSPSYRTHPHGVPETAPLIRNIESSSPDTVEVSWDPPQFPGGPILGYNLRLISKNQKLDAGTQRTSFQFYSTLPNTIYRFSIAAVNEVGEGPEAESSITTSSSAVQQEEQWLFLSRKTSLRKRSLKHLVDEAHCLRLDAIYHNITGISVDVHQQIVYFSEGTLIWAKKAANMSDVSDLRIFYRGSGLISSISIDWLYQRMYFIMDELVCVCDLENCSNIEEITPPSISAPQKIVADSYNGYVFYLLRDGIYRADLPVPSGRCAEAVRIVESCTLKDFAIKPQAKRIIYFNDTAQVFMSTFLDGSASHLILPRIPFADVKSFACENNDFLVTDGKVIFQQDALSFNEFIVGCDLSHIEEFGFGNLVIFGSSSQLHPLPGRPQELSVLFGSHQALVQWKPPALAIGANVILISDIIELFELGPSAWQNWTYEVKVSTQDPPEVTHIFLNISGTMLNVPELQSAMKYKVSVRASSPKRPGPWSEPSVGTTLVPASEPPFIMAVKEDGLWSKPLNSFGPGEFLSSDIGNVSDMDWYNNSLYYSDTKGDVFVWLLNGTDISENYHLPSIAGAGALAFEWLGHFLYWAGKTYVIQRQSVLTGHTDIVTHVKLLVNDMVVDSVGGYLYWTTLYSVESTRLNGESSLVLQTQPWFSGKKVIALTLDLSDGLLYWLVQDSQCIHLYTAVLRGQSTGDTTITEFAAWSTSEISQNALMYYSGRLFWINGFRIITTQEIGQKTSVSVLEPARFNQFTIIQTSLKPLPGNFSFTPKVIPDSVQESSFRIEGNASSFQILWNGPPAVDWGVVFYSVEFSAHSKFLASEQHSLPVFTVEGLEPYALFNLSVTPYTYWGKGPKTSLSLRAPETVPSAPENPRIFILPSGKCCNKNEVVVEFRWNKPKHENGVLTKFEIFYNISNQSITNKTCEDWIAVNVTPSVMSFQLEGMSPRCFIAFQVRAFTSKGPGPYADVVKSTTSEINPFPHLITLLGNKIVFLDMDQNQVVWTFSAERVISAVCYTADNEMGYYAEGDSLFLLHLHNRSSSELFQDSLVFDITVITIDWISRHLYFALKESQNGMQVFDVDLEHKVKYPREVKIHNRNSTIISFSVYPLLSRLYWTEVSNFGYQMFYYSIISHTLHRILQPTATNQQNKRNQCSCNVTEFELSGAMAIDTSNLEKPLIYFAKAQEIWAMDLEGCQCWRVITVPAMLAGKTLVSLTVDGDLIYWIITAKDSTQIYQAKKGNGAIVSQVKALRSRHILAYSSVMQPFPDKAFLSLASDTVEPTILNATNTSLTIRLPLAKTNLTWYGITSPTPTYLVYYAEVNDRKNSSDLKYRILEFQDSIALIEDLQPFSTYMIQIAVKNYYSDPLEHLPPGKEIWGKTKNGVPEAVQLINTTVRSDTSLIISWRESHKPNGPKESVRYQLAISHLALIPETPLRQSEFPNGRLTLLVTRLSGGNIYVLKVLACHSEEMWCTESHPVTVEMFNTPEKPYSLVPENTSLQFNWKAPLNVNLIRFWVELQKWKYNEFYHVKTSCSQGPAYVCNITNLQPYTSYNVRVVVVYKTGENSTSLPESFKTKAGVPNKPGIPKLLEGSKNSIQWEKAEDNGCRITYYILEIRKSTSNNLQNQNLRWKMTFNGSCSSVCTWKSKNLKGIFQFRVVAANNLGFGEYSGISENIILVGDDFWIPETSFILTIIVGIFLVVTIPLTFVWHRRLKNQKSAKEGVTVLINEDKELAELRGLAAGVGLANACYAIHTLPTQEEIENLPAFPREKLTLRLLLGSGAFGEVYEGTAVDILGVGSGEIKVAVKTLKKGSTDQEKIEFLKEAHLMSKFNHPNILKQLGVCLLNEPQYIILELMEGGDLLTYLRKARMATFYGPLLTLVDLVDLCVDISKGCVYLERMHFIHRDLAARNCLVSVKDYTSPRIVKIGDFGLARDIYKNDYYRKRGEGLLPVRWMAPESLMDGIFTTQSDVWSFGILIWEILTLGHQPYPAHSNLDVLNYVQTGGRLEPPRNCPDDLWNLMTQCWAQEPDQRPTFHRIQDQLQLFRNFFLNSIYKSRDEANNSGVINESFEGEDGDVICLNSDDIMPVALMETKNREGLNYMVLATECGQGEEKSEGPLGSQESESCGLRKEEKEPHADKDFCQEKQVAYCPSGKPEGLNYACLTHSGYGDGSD
Chain of Rhodopsin kinase GRK7 (Homo sapiens) (Q8WTQ7 whole entry): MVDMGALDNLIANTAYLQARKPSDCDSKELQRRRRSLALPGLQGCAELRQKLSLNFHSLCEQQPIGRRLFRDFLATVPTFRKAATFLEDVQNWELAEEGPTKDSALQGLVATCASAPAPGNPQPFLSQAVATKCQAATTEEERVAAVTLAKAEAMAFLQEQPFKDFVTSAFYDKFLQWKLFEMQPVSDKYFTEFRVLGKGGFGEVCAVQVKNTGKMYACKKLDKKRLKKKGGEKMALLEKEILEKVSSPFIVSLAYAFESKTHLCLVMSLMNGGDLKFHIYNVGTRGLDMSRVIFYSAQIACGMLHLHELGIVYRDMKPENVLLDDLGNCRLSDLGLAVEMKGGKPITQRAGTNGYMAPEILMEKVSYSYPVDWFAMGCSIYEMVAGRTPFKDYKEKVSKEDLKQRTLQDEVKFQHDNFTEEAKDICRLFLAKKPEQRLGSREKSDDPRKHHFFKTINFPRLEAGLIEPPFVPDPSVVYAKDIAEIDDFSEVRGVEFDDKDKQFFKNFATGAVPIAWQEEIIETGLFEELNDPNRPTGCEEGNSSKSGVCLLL

For `CCCS(=O)(=O)Nc1cccc(Nc2ccc3ncn(C)c(=O)c3c2)c1C#N`, the Activity [1] was 97.5%, the Activity [2] was 102% and the Activity [3] was 103%. It also gave an Activity [4] of 95%, an Activity [5] of 99% and an Activity [6] of 102%. It also gave an Activity [7] of 90%, an inhibition in vivo at 30 mg/kg [8] of 95% and an Activity [9] of 90.5%. For the same compound, the Activity [10] was 106%, the Activity [11] was 99.5% and the Activity [12] was 99.5%. The Activity [13] was 121%, the Activity [14] was 104% and the Papp A→B [15] was over 8 ×10⁻⁶ cm/s. The Activity [16] was 112%, the Activity [17] was 116% and the Activity [18] was 103%. The Activity [19] was 128%, the Activity [20] was 102% and the Activity [21] was 102%. For the same compound, the Activity [22] was 92%, the Activity [23] was 106% and the Activity [24] was 101%. It also gave an Activity [25] of 101%, an Activity [26] of 109% and an Activity [27] of 121%. The Activity [28] was 104%, the Activity [29] was 102% and the Activity [30] was 102%. The Activity [31] was 100%, the Activity [32] was 108% and the Activity [33] was 115%. The Vd [34] was 0.25 L/kg, the Activity [35] was 85% and the Activity [36] was 99%. It also gave an Activity [37] of 110%, an Activity [38] of 104% and an Activity [39] of 112%.
